Assay: xn = mol fraction of the nth substance listed
Conditions: 101 kPa, Liquid; for viscosity: Capillary tube (Ostwald / Ubbelohde) method; for mass density: Pycnometric method

CC(O)C(=O)[O-].CN(C)C(N)=[N+](C)C [1,1,3,3-tetramethylguanidinium lactate] + O
Conditions	mass density [kg/m3]	viscosity [mPa·s]
303.15 K, x2 = 0	1123.5	13684
303.15 K, x2 = 0.1001	1124	7665.3
303.15 K, x2 = 0.2165	1124.3	3594.1
303.15 K, x2 = 0.3182	1124.7	1926
303.15 K, x2 = 0.409	1124.9	1128.2
303.15 K, x2 = 0.5036	1124.5	554.56
303.15 K, x2 = 0.6044	1122.8	253.27
303.15 K, x2 = 0.7034	1119.9	104.72
303.15 K, x2 = 0.8113	1111.2	32.59
303.15 K, x2 = 0.9017	1088.3	8.68
303.15 K, x2 = 0.95	1058.1	3.32
308.15 K, x2 = 0	1120.9	7295.9
308.15 K, x2 = 0.1001	1121.2	4186.3
308.15 K, x2 = 0.2165	1121.5	2150.1
308.15 K, x2 = 0.3182	1121.9	1141.9
308.15 K, x2 = 0.409	1122.1	698
308.15 K, x2 = 0.5036	1121.3	352.18
308.15 K, x2 = 0.6044	1119.7	175.49
308.15 K, x2 = 0.7034	1116.7	74.98
308.15 K, x2 = 0.8113	1107.9	25.05
308.15 K, x2 = 0.9017	1084.9	7.1
308.15 K, x2 = 0.95	1055	2.83
313.15 K, x2 = 0	1117.6	3961.9
313.15 K, x2 = 0.1001	1117.9	2412.1
313.15 K, x2 = 0.2165	1118.1	1263.3
313.15 K, x2 = 0.3182	1118.4	718.88
313.15 K, x2 = 0.409	1118.5	429.45
313.15 K, x2 = 0.5036	1117.6	235.35
313.15 K, x2 = 0.6044	1116.1	122.11
313.15 K, x2 = 0.7034	1113.1	55.39
313.15 K, x2 = 0.8113	1104.2	19.16
313.15 K, x2 = 0.9017	1081.5	5.87
313.15 K, x2 = 0.95	1051.5	2.41
318.15 K, x2 = 0	1114.3	2264.3
318.15 K, x2 = 0.1001	1114.5	1261.7
318.15 K, x2 = 0.2165	1114.6	797.81
318.15 K, x2 = 0.3182	1114.9	458.45
318.15 K, x2 = 0.409	1114.9	289.6
318.15 K, x2 = 0.5036	1114.1	167.33
318.15 K, x2 = 0.6044	1112.6	89.04
318.15 K, x2 = 0.7034	1109.6	42
318.15 K, x2 = 0.8113	1100.6	15.25
318.15 K, x2 = 0.9017	1078.1	4.94
318.15 K, x2 = 0.95	1048.4	2.1
323.15 K, x2 = 0	1111.6	1365.5
323.15 K, x2 = 0.1001	1111.7	890.99
323.15 K, x2 = 0.2165	1111.7	502.11
323.15 K, x2 = 0.3182	1112	310.53
323.15 K, x2 = 0.409	1111.8	201.98
323.15 K, x2 = 0.5036	1111.1	120.29
323.15 K, x2 = 0.6044	1109.2	64.59
323.15 K, x2 = 0.7034	1106.7	32.53
323.15 K, x2 = 0.8113	1097.1	12.34
323.15 K, x2 = 0.9017	1074.5	4.2
323.15 K, x2 = 0.95	1045.6	1.86
328.15 K, x2 = 0	1108.1	867.05
328.15 K, x2 = 0.1001	1108.1	579.99
328.15 K, x2 = 0.2165	1108.2	341
328.15 K, x2 = 0.3182	1108.4	218.6
328.15 K, x2 = 0.409	1108.2	146.62
328.15 K, x2 = 0.5036	1107.4	88.71
328.15 K, x2 = 0.6044	1105.6	49.38
328.15 K, x2 = 0.7034	1102.9	25.68
328.15 K, x2 = 0.8113	1093.2	10.19
328.15 K, x2 = 0.9017	1070.6	3.62
328.15 K, x2 = 0.95	1042.5	1.65

CC(O)C(=O)[O-].[NH3+]CCO (stereo not drawn) [2-hydroxyethylammonium lactate] + O
Conditions	mass density [kg/m3]	viscosity [mPa·s]
303.15 K, x2 = 0	1226.1	11341
303.15 K, x2 = 0.116	1225.3	6523.5
303.15 K, x2 = 0.2026	1223	3828.7
303.15 K, x2 = 0.3045	1220	2137.9
303.15 K, x2 = 0.4043	1216.5	1051
303.15 K, x2 = 0.5027	1210.1	498.98
303.15 K, x2 = 0.6023	1203.2	212
303.15 K, x2 = 0.7016	1190.3	74.69
303.15 K, x2 = 0.8022	1167.2	22.28
303.15 K, x2 = 0.9007	1121	5.19
303.15 K, x2 = 0.9501	1076	2.24
308.15 K, x2 = 0	1223.1	6699.9
308.15 K, x2 = 0.116	1222.2	3975.1
308.15 K, x2 = 0.2026	1219.9	2401.1
308.15 K, x2 = 0.3045	1216.9	1372.6
308.15 K, x2 = 0.4043	1213.4	675.18
308.15 K, x2 = 0.5027	1206.9	343.45
308.15 K, x2 = 0.6023	1200.2	156.6
308.15 K, x2 = 0.7016	1187.2	56.32
308.15 K, x2 = 0.8022	1164.2	18.03
308.15 K, x2 = 0.9007	1118.2	4.46
308.15 K, x2 = 0.9501	1073.5	1.97
313.15 K, x2 = 0	1220.4	4144.6
313.15 K, x2 = 0.116	1219.5	2468.4
313.15 K, x2 = 0.2026	1217.1	1570.4
313.15 K, x2 = 0.3045	1214.1	900.49
313.15 K, x2 = 0.4043	1210.6	458.18
313.15 K, x2 = 0.5027	1204.1	243.72
313.15 K, x2 = 0.6023	1197.3	109.99
313.15 K, x2 = 0.7016	1184.3	43.42
313.15 K, x2 = 0.8022	1161.5	14.62
313.15 K, x2 = 0.9007	1115.7	3.83
313.15 K, x2 = 0.9501	1071.2	1.74
318.15 K, x2 = 0	1217.4	2653.8
318.15 K, x2 = 0.116	1216.3	1615.5
318.15 K, x2 = 0.2026	1213.9	1047.4
318.15 K, x2 = 0.3045	1211	601.07
318.15 K, x2 = 0.4043	1207.6	321.24
318.15 K, x2 = 0.5027	1201	174.88
318.15 K, x2 = 0.6023	1194.2	83.91
318.15 K, x2 = 0.7016	1181.2	34.39
318.15 K, x2 = 0.8022	1158.4	11.85
318.15 K, x2 = 0.9007	1112.7	3.35
318.15 K, x2 = 0.9501	1068.4	1.57
323.15 K, x2 = 0	1214.9	1733.6
323.15 K, x2 = 0.116	1213.7	1084.5
323.15 K, x2 = 0.2026	1211.3	717.58
323.15 K, x2 = 0.3045	1208.3	418.69
323.15 K, x2 = 0.4043	1204.9	232.51
323.15 K, x2 = 0.5027	1198.1	–
323.15 K, x2 = 0.6023	1191.5	64.89
323.15 K, x2 = 0.7016	1178.4	27.88
323.15 K, x2 = 0.8022	1155.7	9.96
323.15 K, x2 = 0.9007	1110.1	2.94
323.15 K, x2 = 0.9501	1065.8	1.41
328.15 K, x2 = 0	1212	1182.5
328.15 K, x2 = 0.116	1210.6	742.12
328.15 K, x2 = 0.2026	1208.1	478.37
328.15 K, x2 = 0.3045	1205.3	299.81
328.15 K, x2 = 0.4043	1201.7	173.38
328.15 K, x2 = 0.5027	1195.1	99.46
328.15 K, x2 = 0.6023	1188.4	50.52
328.15 K, x2 = 0.7016	1175.3	22.65
328.15 K, x2 = 0.8022	1152.6	8.43
328.15 K, x2 = 0.9007	1107	2.61
328.15 K, x2 = 0.9501	1063	1.25

Reference: the NIST ThermoML archive (doi:10.1021/je3009073)
